Measured values published in article PMC9247001, “Ligand-induced structural transitions combined with paramagnetic ions facilitate unambiguous NMR assignments of methyl groups in large proteins” (Journal of Biomolecular Nmr, 2022).
Where two headings read alike, the source gives them in different places.

Key:
[1] = set-up: method as in Zea et al. [2008]; conditions: isothermal titration calorimetry; ref Zea et al. [2008]; read-out: KD1, dissociation constant for the interaction of UTP with divalent metals (converted); cited from earlier work
UTP:LmUGP complex = experiment: Four-states binding model, metal binding to UTP in complex with LmUGP (KD4); set-up: species or system Leishmania major; conditions: approximated by nonlinear least-squares minimization of the four-states model from KD1-3
[2] = 1H NMR titration of di- and trivalent metals over UTP (KD1); type: binding; conditions: metal 0-1400 µM, UTP 239.2 or 250 µM, 293 K, 600 MHz, read-out: KD1, dissociation constant for the interaction of UTP with di- and trivalent metals

In the case of `[Cl][Mn][Cl]` [MnCl2], the Kd [1] is listed as 77 ± 12 µM.
`[Cl][Lu]([Cl])[Cl]` [LuCl3] showed a Kd (UTP:LmUGP complex) of 46 ± 21 µM and a Kd [2] of 38 ± 17 µM.
Work on `[Cl][Eu]([Cl])[Cl]` [EuCl3] yielded a Kd (UTP:LmUGP complex) of 38 ± 12 µM and a Kd [2] of 28 ± 9 µM.
With `[Cl][La]([Cl])[Cl]` [LaCl3] the Kd (UTP:LmUGP complex) was 15 ± 7 µM and the Kd [2] was 11 ± 5 µM.
For `[Cl-].[Cl-].[Mg+2]` [MgCl2], the Kd [1] is listed as 70 µM, the Kd (UTP:LmUGP complex) is listed as 115 ± 10 µM and the Kd [2] is listed as 82 ± 6 µM.
Work on `[Cl][Ce]([Cl])[Cl]` [CeCl3] yielded a Kd (UTP:LmUGP complex) of 17 ± 5 µM and a Kd [2] of 13 ± 4 µM.
